Laboratory results: paper PMC7377239, “Cardiovascular Effects of Polychlorinated Biphenyls and Their Major Metabolites” (Environmental Health Perspectives, 2020)
Like-named read-outs stand apart in the source and are kept apart here.

Experiments:
HUVECs = experiment: Tube formation (tubulogenesis) assay in HUVECs, 18 h; type: cell-based, human; conditions: Homo sapiens, HUVEC, 18 h, HUVEC; for activity at 0.1 µM: 0.10 µM
Outline: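 HUVECs (passage 1–5) seeded on reduced-growth-factor basement membrane and exposed to compounds overnight at 37°C, 5% CO2, in 2× maintenance medium with 12.5 ng/mL VEGF; 0.5% DMSO vehicle. Calcein AM-stained tube networks imaged and analysed; vehicle-normalized readouts fit to four-parameter logistic, POD set at one SD of vehicle means.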

[1] = system: iCell endothelial cells (human iPSC-derived ECs); experiment: Tube formation (tubulogenesis) assay in iCell endothelial cells, 18 h; type: cell-based; conditions: Homo sapiens, Endothelial cell, 18 hr; for activity at 0.1 µM: 0.10 µM
Outline: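 Tube formation was measured by calcein AM imaging after overnight compound exposure (37°C, 0.5% DMSO vehicle) of human iPSC-derived ECs, 7,500/well, on reduced-growth-factor Geltrex in starvation medium. Vehicle-normalized data fitted to four-parameter logistic; POD set at one vehicle SD; without response, 100 μM taken as NOAEL.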

[2] = HUVECs, 0.00 µM = 100.00, read-out: huvec.mtl.18hr
[3] = HUVECs, 0.00 µM = 100.00, read-out: huvec.tlps.18hr
[4] = HUVECs, 0.00 µM = 100.00, read-out: huvec.tta.18hr
[5] = HUVECs, 0.00 µM = 100.00, read-out: huvec.ttl.18hr
[6] = iPSC-EC tube formation, 0.00 µM control = 100.00, read-out: endo.mtl.18hr
[7] = iPSC-EC tube formation, 0.00 µM control = 100.00, read-out: endo.tlps.18hr
[8] = iPSC-EC tube formation, 0.00 µM control = 100.00, read-out: endo.tta.18hr
[9] = iPSC-EC tube formation, 0.00 µM control = 100.00, read-out: endo.ttl.18hr

O=C1C=CC(=O)C(c2ccc(Cl)cc2)=C1 [4-Cl-BQ, 2-(4-Chlorophenyl)benzo-2,5-quinone]
minimal effective concentration (HUVECs; tube formation mtl, read-out: POD huvec.mtl.18hr): 1.18 µM | minimal effective concentration (HUVECs; tube formation tlps, read-out: POD huvec.tlps.18hr): 5.25 µM | minimal effective concentration (HUVECs; tube formation tta, read-out: POD huvec.tta.18hr): 0.65 µM | minimal effective concentration (HUVECs; tube formation ttl, read-out: POD huvec.ttl.18hr): 0.25 µM | activity at 0.01 µM (HUVECs; [2]): 108% | activity at 0.01 µM (HUVECs; [3]): 136% | activity at 0.01 µM (HUVECs; [4]): 110% | activity at 0.01 µM (HUVECs; [5]): 98.6% | activity at 0.1 µM (HUVECs; [2]): 104% | activity at 0.1 µM (HUVECs; [3]): 134% | activity at 0.1 µM (HUVECs; [4]): 99.2% | activity at 0.1 µM (HUVECs; [5]): 97.1% | activity at 1 µM (HUVECs; [2]): 92.4% | activity at 1 µM (HUVECs; [3]): 139% | activity at 1 µM (HUVECs; [4]): 71% | activity at 1 µM (HUVECs; [5]): 68.3% | activity at 10 µM (HUVECs; [2]): 57.7% | activity at 10 µM (HUVECs; [3]): 26.2% | activity at 10 µM (HUVECs; [4]): 36.4% | activity at 10 µM (HUVECs; [5]): 40% | activity at 100 µM (HUVECs; [2]): 55.2% | activity at 100 µM (HUVECs; [3]): 14.3% | activity at 100 µM (HUVECs; [4]): 8.95% | activity at 100 µM (HUVECs; [5]): 11.6% | minimal effective concentration (HUVECs; HUVECs, top concentration 100.00 µM, read-out: huvec.mtl.18hr POD): 1.18 µM | minimal effective concentration (HUVECs; HUVECs, top concentration 100.00 µM, read-out: huvec.tlps.18hr POD): 5.25 µM | minimal effective concentration (HUVECs; HUVECs, top concentration 100.00 µM, read-out: huvec.tta.18hr POD): 0.65 µM | minimal effective concentration (HUVECs; HUVECs, top concentration 100.00 µM, read-out: huvec.ttl.18hr POD): 0.25 µM | minimal effective concentration ([1]; endothelial cells (endo), tube formation mtl, read-out: POD endo.mtl.18hr): 0.38 µM | minimal effective concentration ([1]; endothelial cells (endo), tube formation tlps, read-out: POD endo.tlps.18hr): 1.04 µM | minimal effective concentration ([1]; endothelial cells (endo), tube formation tta, read-out: POD endo.tta.18hr): 23 µM | minimal effective concentration ([1]; endothelial cells (endo), tube formation ttl, read-out: POD endo.ttl.18hr): 11.8 µM | activity at 0.01 µM [1, 6]: 102% | activity at 0.01 µM [1, 7]: 96% | activity at 0.01 µM [1, 8]: 156% | activity at 0.01 µM [1, 9]: 153% | activity at 0.1 µM [1, 6]: 96.3% | activity at 0.1 µM [1, 7]: 114% | activity at 0.1 µM [1, 8]: 135% | activity at 0.1 µM [1, 9]: 131% | activity at 1 µM [1, 6]: 77.5% | activity at 1 µM [1, 7]: 70.1% | activity at 1 µM [1, 8]: 111% | activity at 1 µM [1, 9]: 109% | activity at 10 µM [1, 6]: 68.9% | activity at 10 µM [1, 7]: 45% | activity at 10 µM [1, 8]: 99.9% | activity at 10 µM [1, 9]: 77.6% | activity at 100 µM [1, 6]: 59.2% | activity at 100 µM [1, 7]: 9.31% | activity at 100 µM [1, 8]: 0.43% | activity at 100 µM [1, 9]: 0.77% | minimal effective concentration ([1]; iPSC-EC tube formation, top concentration 100.00 µM, read-out: endo.mtl.18hr POD): 0.38 µM | minimal effective concentration ([1]; iPSC-EC tube formation, top concentration 100.00 µM, read-out: endo.tlps.18hr POD): 1.04 µM | minimal effective concentration ([1]; iPSC-EC tube formation, top concentration 100.00 µM, read-out: endo.tta.18hr POD): 23 µM | minimal effective concentration ([1]; iPSC-EC tube formation, top concentration 100.00 µM, read-out: endo.ttl.18hr POD): 11.8 µM
